Measured values from ChEMBL document CHEMBL3046319, “PCR-RFLP detection of the E198A mutation conferring resistance to benzimidazoles in field isolates of Monilinia laxa from Greece” (Crop Prot, 2012).

Legend:
Type in all cases: functional
Monilinia laxa [1] = experiment: Fungicidal activity against Monilinia laxa isolate MLK12 assessed as mycelial growth at 1 ug/ml at 25 degC after 4 days
Monilinia laxa [2] = experiment: Fungicidal activity against Monilinia laxa isolate MLK1 assessed as mycelial growth at 1 ug/ml at 25 degC after 4 days
Monilinia laxa [3] = experiment: Fungicidal activity against Monilinia laxa isolate MLC2 assessed as mycelial growth at 1 ug/ml at 25 degC after 4 days
Monilinia laxa [4] = experiment: Fungicidal activity against Monilinia laxa isolate MLX1 assessed as mycelial growth at 1 ug/ml at 25 degC after 4 days
Monilinia laxa [5] = experiment: Fungicidal activity against Monilinia laxa isolate MLP4 assessed as mycelial growth at 1 ug/ml at 25 degC after 4 days
Monilinia laxa [6] = experiment: Fungicidal activity against Monilinia laxa isolate MLBO2 assessed as mycelial growth at 1 ug/ml at 25 degC after 4 days
Monilinia laxa [7] = experiment: Fungicidal activity against Monilinia laxa isolate MLA1 assessed as mycelial growth at 1 ug/ml at 25 degC after 4 days
Monilinia laxa [8] = experiment: Fungicidal activity against Monilinia laxa isolate MLX5 assessed as mycelial growth at 1 ug/ml at 25 degC after 4 days
Monilinia laxa [9] = experiment: Fungicidal activity against Monilinia laxa isolate MLP2 assessed as mycelial growth at 1 ug/ml at 25 degC after 4 days
Monilinia laxa [10] = experiment: Fungicidal activity against Monilinia laxa isolate MLBO5 assessed as mycelial growth at 1 ug/ml at 25 degC after 4 days
Monilinia laxa [11] = experiment: Fungicidal activity against Monilinia laxa isolate MLG1 assessed as mycelial growth at 1 ug/ml at 25 degC after 4 days
Monilinia laxa [12] = experiment: Fungicidal activity against Monilinia laxa isolate MLK12 assessed as mycelial growth at 0.5 ug/ml at 25 degC after 4 days
Monilinia laxa [13] = experiment: Fungicidal activity against Monilinia laxa isolate MLK1 assessed as mycelial growth at 0.5 ug/ml at 25 degC after 4 days
Monilinia laxa [14] = experiment: Fungicidal activity against Monilinia laxa isolate MLC2 assessed as mycelial growth at 0.5 ug/ml at 25 degC after 4 days
Monilinia laxa [15] = experiment: Fungicidal activity against Monilinia laxa isolate MLX1 assessed as mycelial growth at 0.5 ug/ml at 25 degC after 4 days
Monilinia laxa [16] = experiment: Fungicidal activity against Monilinia laxa isolate MLP4 assessed as mycelial growth at 0.5 ug/ml at 25 degC after 4 days
Monilinia laxa [17] = experiment: Fungicidal activity against Monilinia laxa isolate MLA1 assessed as mycelial growth at 0.5 ug/ml at 25 degC after 4 days
Monilinia laxa [18] = experiment: Fungicidal activity against Monilinia laxa isolate MLX5 assessed as mycelial growth at 0.5 ug/ml at 25 degC after 4 days
Monilinia laxa [19] = experiment: Fungicidal activity against Monilinia laxa isolate MLP2 assessed as mycelial growth at 0.5 ug/ml at 25 degC after 4 days
Monilinia laxa [20] = experiment: Fungicidal activity against Monilinia laxa isolate MLBO5 assessed as mycelial growth at 0.5 ug/ml at 25 degC after 4 days
Monilinia laxa [21] = experiment: Fungicidal activity against Monilinia laxa isolate MLBO2 assessed as mycelial growth at 0.5 ug/ml at 25 degC after 4 days
Monilinia laxa [22] = experiment: Fungicidal activity against Monilinia laxa isolate MLG1 assessed as mycelial growth at 0.5 ug/ml at 25 degC after 4 days
Monilinia laxa [23] = experiment: Fungicidal activity against Monilinia laxa isolate MLK1 assessed as mycelial growth at 0.1 ug/ml at 25 degC after 4 days
Monilinia laxa [24] = experiment: Fungicidal activity against Monilinia laxa isolate MLC2 assessed as mycelial growth at 0.1 ug/ml at 25 degC after 4 days
Monilinia laxa [25] = experiment: Fungicidal activity against Monilinia laxa isolate MLX1 assessed as mycelial growth at 0.1 ug/ml at 25 degC after 4 days
Monilinia laxa [26] = experiment: Fungicidal activity against Monilinia laxa isolate MLP4 assessed as mycelial growth at 0.1 ug/ml at 25 degC after 4 days
Monilinia laxa [27] = experiment: Fungicidal activity against Monilinia laxa isolate MLK12 assessed as mycelial growth at 0.1 ug/ml at 25 degC after 4 days
Monilinia laxa [28] = experiment: Fungicidal activity against Monilinia laxa isolate MLA1 assessed as mycelial growth at 0.1 ug/ml at 25 degC after 4 days
Monilinia laxa [29] = experiment: Fungicidal activity against Monilinia laxa isolate MLX5 assessed as mycelial growth at 0.1 ug/ml at 25 degC after 4 days
Monilinia laxa [30] = experiment: Fungicidal activity against Monilinia laxa isolate MLP2 assessed as mycelial growth at 0.1 ug/ml at 25 degC after 4 days
Monilinia laxa [31] = experiment: Fungicidal activity against Monilinia laxa isolate MLBO5 assessed as mycelial growth at 0.1 ug/ml at 25 degC after 4 days
Monilinia laxa [32] = experiment: Fungicidal activity against Monilinia laxa isolate MLBO2 assessed as mycelial growth at 0.1 ug/ml at 25 degC after 4 days
Monilinia laxa [33] = experiment: Fungicidal activity against Monilinia laxa isolate MLG1 assessed as mycelial growth at 0.1 ug/ml at 25 degC after 4 days
Monilinia laxa [34] = experiment: Fungicidal activity against Monilinia laxa isolate MLK12 assessed as mycelial growth at 0.05 ug/ml at 25 degC after 4 days
Monilinia laxa [35] = experiment: Fungicidal activity against Monilinia laxa isolate MLK1 assessed as mycelial growth at 0.05 ug/ml at 25 degC after 4 days
Monilinia laxa [36] = experiment: Fungicidal activity against Monilinia laxa isolate MLC2 assessed as mycelial growth at 0.05 ug/ml at 25 degC after 4 days
Monilinia laxa [37] = experiment: Fungicidal activity against Monilinia laxa isolate MLX1 assessed as mycelial growth at 0.05 ug/ml at 25 degC after 4 days
Monilinia laxa [38] = experiment: Fungicidal activity against Monilinia laxa isolate MLP4 assessed as mycelial growth at 0.05 ug/ml at 25 degC after 4 days
Monilinia laxa [39] = experiment: Fungicidal activity against Monilinia laxa isolate MLA1 assessed as mycelial growth at 0.05 ug/ml at 25 degC after 4 days
Monilinia laxa [40] = experiment: Fungicidal activity against Monilinia laxa isolate MLX5 assessed as mycelial growth at 0.05 ug/ml at 25 degC after 4 days
Monilinia laxa [41] = experiment: Fungicidal activity against Monilinia laxa isolate MLP2 assessed as mycelial growth at 0.05 ug/ml at 25 degC after 4 days
Monilinia laxa [42] = experiment: Fungicidal activity against Monilinia laxa isolate MLBO5 assessed as mycelial growth at 0.05 ug/ml at 25 degC after 4 days
Monilinia laxa [43] = experiment: Fungicidal activity against Monilinia laxa isolate MLBO2 assessed as mycelial growth at 0.05 ug/ml at 25 degC after 4 days
Monilinia laxa [44] = experiment: Fungicidal activity against Monilinia laxa isolate MLG1 assessed as mycelial growth at 0.05 ug/ml at 25 degC after 4 days
Monilinia laxa [45] = experiment: Fungicidal activity against Monilinia laxa isolate MLK12 assessed as mycelial growth at 5 ug/ml at 25 degC after 4 days
Monilinia laxa [46] = experiment: Fungicidal activity against Monilinia laxa isolate MLK1 assessed as mycelial growth at 5 ug/ml at 25 degC after 4 days
Monilinia laxa [47] = experiment: Fungicidal activity against Monilinia laxa isolate MLC2 assessed as mycelial growth at 5 ug/ml at 25 degC after 4 days
Monilinia laxa [48] = experiment: Fungicidal activity against Monilinia laxa isolate MLX1 assessed as mycelial growth at 5 ug/ml at 25 degC after 4 days
Monilinia laxa [49] = experiment: Fungicidal activity against Monilinia laxa isolate MLP4 assessed as mycelial growth at 5 ug/ml at 25 degC after 4 days
Monilinia laxa [50] = experiment: Fungicidal activity against Monilinia laxa isolate MLBO2 assessed as mycelial growth at 5 ug/ml at 25 degC after 4 days
Monilinia laxa [51] = experiment: Fungicidal activity against Monilinia laxa isolate MLA1 assessed as mycelial growth at 5 ug/ml at 25 degC after 4 days
Monilinia laxa [52] = experiment: Fungicidal activity against Monilinia laxa isolate MLX5 assessed as mycelial growth at 5 ug/ml at 25 degC after 4 days
Monilinia laxa [53] = experiment: Fungicidal activity against Monilinia laxa isolate MLP2 assessed as mycelial growth at 5 ug/ml at 25 degC after 4 days
Monilinia laxa [54] = experiment: Fungicidal activity against Monilinia laxa isolate MLBO5 assessed as mycelial growth at 5 ug/ml at 25 degC after 4 days
Monilinia laxa [55] = experiment: Fungicidal activity against Monilinia laxa isolate MLG1 assessed as mycelial growth at 5 ug/ml at 25 degC after 4 days

CCCCNC(=O)n1c(NC(=O)OC)nc2ccccc21 [BENOMYL]
Activity (Monilinia laxa [1]): 100% | Activity (Monilinia laxa [2]): 100% | Activity (Monilinia laxa [3]): 80.01% | Activity (Monilinia laxa [4]): 100% | Activity (Monilinia laxa [5]): 100% | Activity (Monilinia laxa [6]): 0% | Activity (Monilinia laxa [7]): 0% | Activity (Monilinia laxa [8]): 0% | Activity (Monilinia laxa [9]): 0% | Activity (Monilinia laxa [10]): 0% | Activity (Monilinia laxa [11]): 0%

O=C(Nc1ccccc1-c1ccc(Cl)cc1)c1cccnc1Cl [BOSCALID]
Activity (Monilinia laxa [12]): 45.05% | Activity (Monilinia laxa [13]): 62.05% | Activity (Monilinia laxa [14]): 0% | Activity (Monilinia laxa [15]): 60.03% | Activity (Monilinia laxa [16]): 0% | Activity (Monilinia laxa [17]): 42.73% | Activity (Monilinia laxa [18]): 0% | Activity (Monilinia laxa [19]): 66.82% | Activity (Monilinia laxa [20]): 0% | Activity (Monilinia laxa [21]): 36.67% | Activity (Monilinia laxa [22]): 0%

CC1(C(=O)Nc2ccc(O)c(Cl)c2Cl)CCCCC1 [FENHEXAMID]
Activity (Monilinia laxa [23]): 17.65% | Activity (Monilinia laxa [24]): 50.35% | Activity (Monilinia laxa [25]): 21.82% | Activity (Monilinia laxa [26]): 45.83% | Activity (Monilinia laxa [27]): 60.05% | Activity (Monilinia laxa [28]): 23.05% | Activity (Monilinia laxa [29]): 50.34% | Activity (Monilinia laxa [30]): 25% | Activity (Monilinia laxa [31]): 21.05% | Activity (Monilinia laxa [32]): 10.03% | Activity (Monilinia laxa [33]): 0%

N#Cc1c[nH]cc1-c1cccc2c1OC(F)(F)O2 [FLUDIOXONIL]
Activity (Monilinia laxa [34]): 12.78% | Activity (Monilinia laxa [35]): 13.66% | Activity (Monilinia laxa [36]): 18.3% | Activity (Monilinia laxa [37]): 21.09% | Activity (Monilinia laxa [38]): 13.89% | Activity (Monilinia laxa [39]): 16.22% | Activity (Monilinia laxa [40]): 17.5% | Activity (Monilinia laxa [41]): 16.05% | Activity (Monilinia laxa [42]): 11.01% | Activity (Monilinia laxa [43]): 17.99% | Activity (Monilinia laxa [44]): 15.05%

CC(C)NC(=O)N1CC(=O)N(c2cc(Cl)cc(Cl)c2)C1=O [IPRODIONE]
Activity (Monilinia laxa [12]): 45.46% | Activity (Monilinia laxa [13]): 57.14% | Activity (Monilinia laxa [14]): 46.61% | Activity (Monilinia laxa [15]): 21.88% | Activity (Monilinia laxa [16]): 45.23% | Activity (Monilinia laxa [17]): 30.22% | Activity (Monilinia laxa [18]): 54.55% | Activity (Monilinia laxa [19]): 28.12% | Activity (Monilinia laxa [20]): 0% | Activity (Monilinia laxa [21]): 40.44% | Activity (Monilinia laxa [22]): 35.42%

COC(=O)N(OC)c1ccccc1COc1ccn(-c2ccc(Cl)cc2)n1 [PYRACLOSTROBIN]
Activity (Monilinia laxa [34]): 37.5% | Activity (Monilinia laxa [35]): 50.05% | Activity (Monilinia laxa [36]): 34.48% | Activity (Monilinia laxa [37]): 29.41% | Activity (Monilinia laxa [38]): 47.32% | Activity (Monilinia laxa [39]): 36.82% | Activity (Monilinia laxa [40]): 51.15% | Activity (Monilinia laxa [41]): 50% | Activity (Monilinia laxa [42]): 49.62% | Activity (Monilinia laxa [43]): 40.65% | Activity (Monilinia laxa [44]): 25%

CC(C)(C)C(O)(CCc1ccc(Cl)cc1)Cn1cncn1 (centres undefined) [TEBUCONAZOLE]
Activity (Monilinia laxa [34]): 30% | Activity (Monilinia laxa [35]): 22.24% | Activity (Monilinia laxa [36]): 39.39% | Activity (Monilinia laxa [37]): 30.77% | Activity (Monilinia laxa [38]): 35.71% | Activity (Monilinia laxa [39]): 47.41% | Activity (Monilinia laxa [40]): 65.45% | Activity (Monilinia laxa [41]): 34.29% | Activity (Monilinia laxa [42]): 49.65% | Activity (Monilinia laxa [43]): 48.34% | Activity (Monilinia laxa [44]): 25.3%

COC(=O)NC(=S)Nc1ccccc1NC(=S)NC(=O)OC [THIOPHANATE METHYL]
Activity (Monilinia laxa [45]): 100% | Activity (Monilinia laxa [46]): 100% | Activity (Monilinia laxa [47]): 95.25% | Activity (Monilinia laxa [48]): 100% | Activity (Monilinia laxa [49]): 93.75% | Activity (Monilinia laxa [50]): 0% | Activity (Monilinia laxa [51]): 0% | Activity (Monilinia laxa [52]): 0% | Activity (Monilinia laxa [53]): 0% | Activity (Monilinia laxa [54]): 0% | Activity (Monilinia laxa [55]): 0%

CCC(C)(NC(=O)c1cc(Cl)c(C)c(Cl)c1)C(=O)CCl (centres undefined) [ZOXAMIDE]
Activity (Monilinia laxa [12]): 0% | Activity (Monilinia laxa [13]): 0% | Activity (Monilinia laxa [14]): 0% | Activity (Monilinia laxa [15]): 0% | Activity (Monilinia laxa [16]): 0% | Activity (Monilinia laxa [17]): 48.95% | Activity (Monilinia laxa [18]): 39.09% | Activity (Monilinia laxa [19]): 59.09% | Activity (Monilinia laxa [20]): 44% | Activity (Monilinia laxa [21]): 43.33% | Activity (Monilinia laxa [22]): 36.05%
